According to publication PMC3203319 (The Journal of antibiotics, 2011):
Values after ≈ are worked out from the molar mass of the structure shown.

Assays:
E.coli 1GC2 = assay: MIC, Gram-negative panel; type: cell-based; details: Escherichia coli
S.epidermidis (MS) SE42 = assay: MIC, Gram-positive panel; type: cell-based; details: Staphylococcus epidermidis
S.aureus BSA 643 = assay: MIC, MRSA panel; type: cell-based; details: Staphylococcus aureus
[1] = tested on: DNA, RNA, and protein synthesis in S. aureus ATCC 29213; assay: Macromolecular synthesis assays; type: cell-based; details: 10× MIC, 20 min incubation
S.aureus NY 2746 = assay: MIC, MRSA panel; type: cell-based; details: Staphylococcus aureus
Plasma stability [2] = type: in vitro ADME; details: rat
E.coli FQR 362265 = assay: MIC, Gram-negative panel; type: cell-based; details: Escherichia coli, FQR362265
Plasma stability [3] = type: in vitro ADME; details: human
S.aureus BSA 678 = assay: MIC, MRSA panel; type: cell-based; details: Staphylococcus aureus
S.marcescens ACH-0009 = assay: MIC, Gram-negative panel; type: cell-based; details: Serratia marcescens, ACH0009
E.faecalis ATCC 29212 = assay: MIC, Gram-positive panel; type: cell-based; details: Enterococcus faecalis, ATCC29212
S.aureus ATCC 33591 = assay: MIC, MRSA panel; type: cell-based; details: Staphylococcus aureus, ATCC33591|MRSA
Plasma stability [4] = type: in vitro ADME; details: dog
[5] = Stability in dosing vehicle; type: physicochemical; details: potassium phosphate at pH 7.4, after 4 h
S.aureus ACH-0232 = assay: MIC, MRSA panel; type: cell-based; details: Staphylococcus aureus
MSSA = assay: MIC assay with 50% mouse serum added; type: cell-based, S. aureus; details: fold shift in MIC with 50% mouse serum
[6] = tested on: S.haemolyticus (MS) ACH-0013; assay: MIC, Gram-positive panel; type: cell-based; details: Staphylococcus haemolyticus
[7] = tested on: E.faecium (VR) ATCC 700221; assay: MIC, Gram-positive panel; type: cell-based; details: Enterococcus faecium, ATCC700221
S.aureus BK 2384 = assay: MIC, MRSA panel; type: cell-based; details: Staphylococcus aureus
[8] = Liver microsome stability; type: in vitro ADME; details: human liver microsomes (HLM)
[9] = Liver S9 fraction stability; type: in vitro ADME; details: rat liver S9 fraction (RLS9)
S. aureus ATCC 29213 = assay: Time-kill study; type: cell-based; details: 2, 4 and 8 times the MIC, 24 h time course
E.faecium ATCC 49032 = assay: MIC, Gram-positive panel; type: cell-based; details: Enterococcus faecium, ATCC49032
[10] = Liver S9 fraction stability; type: in vitro ADME, human
MRSA = assay: MIC assay with 50% human serum added; type: cell-based, S. aureus; details: fold shift in MIC with 50% human serum
Gram-positive bacteria = assay: MBC analysis, expanded panel of Gram-positive bacteria; type: cell-based; details: MIC = MBC
Plasma stability [11] = type: in vitro ADME; details: monkey
[12] = Liver microsome stability; type: in vitro ADME; details: rat liver microsomes (RLM)
S.aureus ACH-0231 = assay: MIC, MRSA panel; type: cell-based; details: Staphylococcus aureus
[13] = tested on: S.epidermidis (FQR) ACH-0082; assay: MIC, Gram-positive panel; type: cell-based; details: Staphylococcus epidermidis
Plasma stability [14] = type: in vitro ADME; details: mouse
P.aeruginosa FQR 467296 = assay: MIC, Gram-negative panel; type: cell-based; details: Pseudomonas aeruginosa, FQR467296
A.baumanii ATCC 9957 = assay: MIC, Gram-negative panel; type: cell-based; details: Acinetobacter baumannii, ATCC9957
S.aureus COL = assay: MIC, MRSA panel; type: cell-based; details: Staphylococcus aureus
E.cloacae ACH-0008 = assay: MIC, Gram-negative panel; type: cell-based; details: Enterobacter cloacae, ACH0008
K.pneumoniae ATCC 13883 = assay: MIC, Gram-negative panel; type: cell-based; details: Klebsiella pneumoniae, ATCC13883
S.typhimurium ATCC 14028 = assay: MIC, Gram-negative panel; type: cell-based; details: Salmonella enterica, ATCC14028|TYPHIMURIUM
rat red blood cell = assay: Hemolysis, rat red blood cell assay; type: cell-based; details: rat red blood cells, data not shown
[15] = tested on: E.faecalis (VR) ATCC 700802; assay: MIC, Gram-positive panel; type: cell-based; details: Enterococcus faecalis, ATCC700802
C. albicans = assay: MIC against yeast; type: cell-based; details: Candida albicans, read-out: MIC C. albicans

O=[N+]([O-])c1ccc(-c2nc3cccc(O)c3[nH]2)o1 [Compound 3e, 2-(5-Nitrofuran-2-yl)-3H-benzo[d]imidazole-4ol]
MIC (E.coli 1GC2): 16 mg/L (≈ 65.3 µM) | MIC (S.epidermidis (MS) SE42): 1 mg/L (≈ 4.08 µM) | MIC (S.aureus BSA 643): 1 mg/L (≈ 4.08 µM) | inhibition of DNA, RNA and protein synthesis [1]: significantly inhibited DNA, RNA, and protein at nearly equivalent levels | MIC (S.aureus NY 2746): 2 mg/L (≈ 8.16 µM) | half-life (Plasma stability [2]): 3.9 h | MIC (E.coli FQR 362265): 4 mg/L (≈ 16.3 µM) | half-life (Plasma stability [3]): 4.5 h | MIC (S.aureus BSA 678): 1 mg/L (≈ 4.08 µM) | MIC (S.marcescens ACH-0009): 16 mg/L (≈ 65.3 µM) | MIC (E.faecalis ATCC 29212): 1 mg/L (≈ 4.08 µM) | MIC (S.aureus ATCC 33591): 2 mg/L (≈ 8.16 µM) | half-life (Plasma stability [4]): 5.6 h | stability in dosing vehicle [5]: no degradation | MIC (S.aureus ACH-0232): 2 mg/L (≈ 8.16 µM) | Fold Shift Mouse (MSSA): 4 × | MIC [6]: 0.5 mg/L (≈ 2.04 µM) | MIC [7]: 4 mg/L (≈ 16.3 µM) | MIC (S.aureus BK 2384): 1 mg/L (≈ 4.08 µM) | time to complete clearance [8]: ≤ 30 min | clearance time [9]: < 30 min | Time-kill result (S. aureus ATCC 29213): bactericidal | MIC (E.faecium ATCC 49032): 4 mg/L (≈ 16.3 µM) | remaining ([10]; HLS9, after 60 min of incubation): 13% | half-life ([10]; human, liver S9 fraction): 0.21 h | Fold Shift Human (MRSA): 4 × | bactericidal activity by MBC analysis (Gram-positive bacteria): bactericidal | half-life (Plasma stability [11]): 2 h | time to complete clearance [12]: ≤ 30 min | MIC (S.aureus ACH-0231): 2 mg/L (≈ 8.16 µM) | MIC [13]: 4 mg/L (≈ 16.3 µM) | half-life (Plasma stability [14]): 3.6 h | MIC (P.aeruginosa FQR 467296): > 64 mg/L | MIC (A.baumanii ATCC 9957): > 64 mg/L | MIC (S.aureus COL): 1 mg/L (≈ 4.08 µM) | MIC (E.cloacae ACH-0008): 4 mg/L (≈ 16.3 µM) | MIC (K.pneumoniae ATCC 13883): 8 mg/L (≈ 32.6 µM) | MIC (S.typhimurium ATCC 14028): 4 mg/L (≈ 16.3 µM) | hemolysis (rat red blood cell): negative | MIC [15]: 1 mg/L (≈ 4.08 µM) | MIC (C. albicans): > 64 mg/L

CN[C@H](CC(C)C)C(=O)N[C@H]1C(=O)N[C@@H](CC(N)=O)C(=O)N[C@H]2C(=O)N[C@H]3C(=O)N[C@H](C(=O)N[C@H](C(=O)O)c4cc(O)cc(O)c4-c4cc3ccc4O)[C@H](O)c3ccc(c(Cl)c3)Oc3cc2cc(c3O[C@@H]2O[C@H](CO)[C@@H](O)[C@H](O)[C@H]2O[C@H]2C[C@](C)(N)[C@H](O)[C@H](C)O2)Oc2ccc(cc2Cl)[C@H]1O [Vancomycin, reference compound]
MIC (S.aureus BSA 643): 1 mg/L (≈ 0.69 µM) | MIC (S.aureus NY 2746): 1 mg/L (≈ 0.69 µM) | MIC (S.aureus BSA 678): 1 mg/L (≈ 0.69 µM) | MIC (S.aureus ATCC 33591): 1 mg/L (≈ 0.69 µM) | MIC (S.aureus ACH-0232): 1 mg/L (≈ 0.69 µM) | MIC (S.aureus BK 2384): 1 mg/L (≈ 0.69 µM) | MIC (S.aureus ACH-0231): 2 mg/L (≈ 1.38 µM) | MIC (S.aureus COL): 1 mg/L (≈ 0.69 µM)
